Patent publication US20120252765A1, “USE OF […] THE PREPARATION OF A MEDICAMENT FOR THE PREVENTION OF HOSPI[…] HEART FAILURE” (SANOFI, priority 2009, published 2012)

Tested on: patients with atrial fibrillation
Assay: partial factorial, double-blind, randomized, multi-center, placebo-controlled trial of irbesartan for prevention of vascular events
Type: in vivo, human
Text: Efficacy of irbesartan and its pharmaceutically acceptable salts versus placebo in patients with atrial fibrillation for the prevention of vascular events was provided via irbesartan during a partial factorial, double-blind, randomized, multi-center, placebo-controlled group trial.
To be eligible for the trial, patients had to have all of the following: an evidence of atrial fibrillation, an evidence of high risk of vascular events, and a systolic blood pressure of at least 110 mm Hg.
The evidence of atrial fibrillation is defined as follows: patient must have either permanent, paroxysmal or persistent atrial fibrillation. Patients in atrial fibrillation at baseline (unless cardiovascular surgery was performed in the previous month) had ECG documented atrial fibrillation at the time of enrollment. Patients not in atrial fibrillation at baseline (i.e. during screening period, between the screening visit and the day of randomization) had ECG documented atrial fibrillation on two separate occasions, at least 2 weeks apart in the six months prior to randomization (and not within one month of cardiovascular surgery).
The evidence of high risk of vascular events is defined as follows: at least one of the following risk criteria must be present:
Patients have been enrolled for over 4 years. Study drug treatment units (placebo or irbesartan) were such that each patient took two tablets of either placebo or 150 mg irbesartan form A, once daily, at night. After an up-titration period of 2 weeks, all patients were up-titrated to 300 mg. They took two tablets of either placebo or 150 mg irbesartan form A, once daily, at night.
Results were calculated using non-parametric Kaplan-Meier estimate.
Cox's proportional hazard model was used to estimate the hazard ratio also called relative risk.
Relative risk (RR) is the ratio between the risk of having a hospitalization for heart failure for patients treated with irbesartan and the risk of having a hospitalization for heart failure for patients treated with placebo.
The percentage of decrease of an event is calculated as follow: […]

## CCCCC1=NC2(CCCC2)C(=O)N1Cc1ccc(-c2ccccc2-c2nnn[nH]2)cc1 [irbesartan, 2-n-butyl-4-spirocyclopentane-1-[(2′-(tetrazol-5-yl)biphenyl-4-yl)methyl]-2-imidazolin-5-one]
4518 patients on irbesartan form A up-titrated to 300 mg once daily, Kaplan-Meier estimate, placebo 3.2% per year
  risk of heart failure hospitalization: 2.7 % per year
Irbesartan group, placebo 4059, p=0.004
  number of stays in hospital: 3817
Irbesartan group, placebo 39941, p=0.0001
  days hospitalized for cardiovascular reasons: 36480 days
Irbesartan versus placebo
  decrease of days hospitalized for cardiovascular reasons: 8.7%
Irbesartan versus placebo, Cox's proportional hazard model, confidence interval 0.76-0.98, p=0.018
  relative risk (hazard ratio) of hospitalization for heart failure: 0.86
Irbesartan versus placebo, p=0.018
  reduction in the risk of heart failure hospitalization (1-RR): 14%
Number of events in the irbesartan group (4518 patients), placebo 551
  hospitalization for heart failure events: 482
Post hoc analysis, irbesartan versus placebo, p=0.02
  reduction in the risk of the composite of stroke, non-CVS embolism and transient ischemic attacks: 13%
Post hoc analysis, placebo 3.4% per year
  risk of the composite of stroke, non-CVS embolism and transient ischemic attacks: 2.9 % per year
